In this experiment the test system is PANC-1 (human pancreatic cancer-derived cell line). Description: MTS assay on Panc-1 (human pancreas carcinoma cell line). Format: cell-based. The settings on record: 144 h; for inhibition at 0.3125 µM: read-out: Growth inhibition (%) 0.3125 μM; for inhibition at 1 µM: read-out: Growth inhibition (%) 1 μM; for inhibition at 10 µM: read-out: Growth inhibition (%) 10 μM; for IC50: PANC-1, MTS method, cell survival 6 days after exposure, 4-parameter logistic fit; for inhibition at 30 µM: read-out: Growth inhibition (%) 30 μM; for inhibition at 0.15625 µM: read-out: Growth inhibition (%) 0.15625 μM. An outline of the steps:
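PANC-1 cells in D-MEM + 10% FBS at 37 °C, 5% CO2 exposed to 2-fold serial DMSO dilutions of compound for 6 days. Survival read by MTS (492 minus 630 nm, blank-corrected) relative to DMSO control as 100%; mean of 3 runs, 4-parameter logistic fit.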

In the case of `CC(C)N1CCC(N2C[C@@H]3N(C(=O)/C=C/c4cnc5ccccc5n4)O[C@H](CC4CCCCC4)C(=O)N3[C@@H](CC(C)(C)C)C2=O)CC1` [ID-106, (3R,6S,9aS)-3-(cyclohexylmethyl)-8-(1-isopropylpiperidin-4-yl)-6-neopentyl-1-((E)-3-(quinoxalin-2-yl)acryloyl)tetrahydropyrazino[2,1-c][1,2,4]oxadiazine-4,7(3H,6H)-dione], where the note is “PANC-1, MTS, 6 days”, the inhibition at 0.3125 µM was found to be 29.8% and the inhibition at 1 µM was found to be 101%.

For `CC(C)C[C@H]1ON(C(=O)/C=C/c2cc3n(n2)CCOC3)[C@H]2CN(C3CCN(C)CC3)C(=O)[C@H](CC(C)C)N2C1=O` [ID-49, (3R,6S,9aS)-1-((E)-3-(6,7-dihydro-4H-pyrazolo[5,1-c][1,4]oxazin-2-yl)acryloyl)-3,6-diisobutyl-8-(1-methylpiperidin-4-yl)tetrahydropyrazino[2,1-c][1,2,4]oxadiazine-4,7 (3H, 6H)-dione], the inhibition at 10 µM (PANC-1, MTS, 6 days) was 74.9%. Take `CC(C)C[C@H]1ON(C(=O)/C=C/c2nn(C)c3ccccc23)[C@H]2CN(CCC(N)=O)C(=O)[C@H](CC(C)C)N2C1=O` [ID-22, 3-((3R,6S,9aS)-3,6-diisobutyl-1-((E)-3-(1-methyl-1H-indazol-3-yl)acryloyl)-4,7-dioxohexahydropyrazino[2,1-c][1,2,4]oxadiazin-8(1H)-yl)propanamide]: the IC50 was found to be 15600 nM. Besides, the inhibition at 30 µM (PANC-1, MTS, 6 days) came to 95.4%. Consider `CSc1nccc(/C=C/C(=O)N2O[C@H](CC(C)C)C(=O)N3[C@@H]2CN([C@H]2CCN(CCCCO)C2)C(=O)[C@@H]3CC(C)(C)C)n1` [ID-78, (3R,6S,9aS)-8-((S)-1-(4-hydroxybutyl)pyrrolidin-3-yl)-3-isobutyl-1-((E)-3-(2-(methylthio)pyrimidin-4-yl)acryloyl)-6-neopentyltetrahydropyrazino[2,1-c][1,2,4]oxadiazine-4,7(3H,6H)-dione], for which the inhibition at 0.3125 µM (PANC-1, MTS, 6 days) was found to be 41.5%. `CC(C)C[C@H]1ON(C(=O)/C=C/c2ccc3ccccc3n2)[C@H]2CN(CCC(N)=O)C(=O)[C@H](CC(C)C)N2C1=O` [ID-20, 3-((3R,6S,9aS)-3,6-diisobutyl-4,7-dioxo-1-((E)-3-(quinolin-2-yl)acryloyl)hexahydropyrazino[2,1-c][1,2,4]oxadiazin-8 (1H)-yl)propanamide] came in with a half-maximal inhibitory concentration (IC50) of 2400 nM. For the setting “PANC-1, MTS, 6 days”, the inhibition at 30 µM amounted to 100%.

With `CC(C)N1CCC(N2C[C@@H]3N(C(=O)/C=C/c4nc(C#CCCCCO)cs4)O[C@H](CC4CC4)C(=O)N3[C@@H](CC(C)(C)C)C2=O)CC1` [ID-99, (3R,6S,9aS)-3-(cyclopropylmethyl)-1-((E)-3-(4-(6-hydroxyhex-1-yn-1-yl)thiazol-2-yl)acryloyl)-8-(1-isopropylpiperidin-4-yl)-6-neopentyltetrahydropyrazino[2,1-c] [1,2,4]oxadiazine-4,7(3H,6H)-dione], the inhibition at 0.15625 µM (PANC-1, MTS, 6 days) was found to be 61.1%. For `CC(C)C[C@H]1ON(C(=O)/C=C/c2ccccc2)[C@H]2CN(C3CCN(C)CC3)C(=O)[C@H](CC(C)C)N2C1=O` [ID-39, (3R,6S,9aS)-1-cinnamoyl-3,6-diisobutyl-8-(1-methylpiperidin-4-yl)tetrahydropyrazino[2,1-c][1,2,4]oxadiazine-4,7 (3H, 6H)-dione], 8900 nM corresponded to half-maximal inhibition (IC50). For the same molecule, for the setting “PANC-1, MTS, 6 days”, the inhibition at 10 µM amounted to 80.8%. `CC(C)C[C@H]1ON(C(=O)/C=C/c2nc(C#CCCCCO)cs2)[C@H]2CN([C@H]3CCN(CCCCO)C3)C(=O)[C@H](CC(C)(C)C)N2C1=O` [ID-9, (3R,6S,9aS)-8-((S)-1-(4-hydroxybutyl)pyrrolidin-3-yl)-1-((E)-3-(4-(6-hydroxyhex-1-yn-1-yl)thiazol-2-yl)acryloyl)-3-isobutyl-6-neopentyltetrahydropyrazino[2,1-c][1,2,4]oxadiazine-4,7(3H,6H)-dione] registered an IC50 of 99 nM. `CC(C)C[C@H]1ON(C(=O)/C=C/c2nnc(C3CC3)s2)[C@H]2CN(CCC(N)=O)C(=O)[C@H](CC(C)C)N2C1=O` [ID-29, 3-((3R,6S,9aS)-1-((E)-3-(5-cyclopropyl-1,3,4-thiadiazol-2-yl)acryloyl)-3,6-diisobutyl-4,7-dioxohexahydropyrazino[2,1-c][1,2,4]oxadiazin-8(1H)-yl)propanamide] came in with an IC50 of 2300 nM. The inhibition at 10 µM (PANC-1, MTS, 6 days) is 101%. In the case of `CC(C)C[C@H]1CN(C(=O)/C=C/c2nc3ccccc3s2)[C@H]2CN([C@@H]3CCN(CCCCO)C3)C(=O)[C@H](CC(C)(C)C)N2C1=O` [ID-96, (3S,6S,9aR)-1-((E)-3-(benzo[d]thiazol-2-yl)acryloyl)-8-((R)-1-(4-hydroxybutyl)pyrrolidin-3-yl)-3-isobutyl-6-neopentylhexahydro-4H-pyrazino[1,2-a]pyrimidine-4,7(6H)-dione], under “PANC-1, MTS, 6 days”, the inhibition at 0.3125 µM is -1.7% and the inhibition at 10 µM worked out at 101%. Molecule `Cc1nc(/C=C/C(=O)N2O[C@H](CC(C)C)C(=O)N3[C@@H]2CN(CCC(N)=O)C(=O)[C@@H]3CC(C)C)sc1C` [ID-34, 3-((3R,6S,9aS)-1-((E)-3-(4,5-dimethylthiazol-2-yl)acryloyl)-3,6-diisobutyl-4,7-dioxohexahydropyrazino[2,1-c][1,2,4]oxadiazin-8(1H)-yl)propanamide] gave a half-inhibitory concentration (IC50) of 2600 nM. The inhibition at 10 µM (PANC-1, MTS, 6 days) is 95.5%. On to `C#Cc1sc(/C=C/C(=O)N2O[C@H](CC(C)C)C(=O)N3[C@@H]2CN(C2CCN(C)CC2)C(=O)[C@@H]3CC(C)(C)C)nc1C#CCCCO` [ID-103, (3R,6S,9aS)-1-((E)-3-(5-ethynyl-4-(5-hydroxypent-1-yn-1-yl)thiazol-2-yl)acryloyl)-3-isobutyl-8-(1-methylpiperidin-4-yl)-6-neopentyltetrahydropyrazino[2,1-c][1,2,4]oxadiazine-4,7 (3H, 6H)-dione], for which, for the setting “PANC-1, MTS, 6 days”, the inhibition at 0.3125 µM was 99.6%. `CNC(=O)CCCC#Cc1csc(/C=C/C(=O)N2O[C@H](CC(C)C)C(=O)N3[C@@H]2CN([C@H]2CCN(CCCCO)C2)C(=O)[C@@H]3CC(C)(C)C)n1` [ID-93, 6-(2-((E)-3-((3R, 6S, 9aS)-8-((S)-1-(4-hydroxybutyl)pyrrolidin-3-yl)-3-isobutyl-6-neopentyl-4,7-dioxohexahydropyrazino[2,1-c][1,2,4]oxadiazin-1(6H)-yl)-3-oxoprop-1-en-1-yl)thiazol-4-yl)—N-methylhex-5-ynamide]: where the note is “PANC-1, MTS, 6 days”, the inhibition at 0.15625 µM was found to be 37.4%. With `COc1ccc(/C=C/C(=O)N2O[C@H](CC(C)C)C(=O)N3[C@@H]2CN(C2CCN(C)CC2)C(=O)[C@@H]3CC(C)C)nc1` [ID-72, (3R,6S,9aS)-3,6-diisobutyl-1-((E)-3-(5-methoxypyridin-2-yl)acryloyl)-8-(1-methylpiperidin-4-yl)tetrahydropyrazino[2,1-c][1,2,4]oxadiazine-4,7(3H,6H)-dione], for the setting “PANC-1, MTS, 6 days, 2.5 μM, read-out: Growth inhibition (%) 2.5 μM”, the inhibition at 2.5 µM was determined as 37%. As for `CC(C)C[C@H]1ON(C(=O)/C=C/c2ccccn2)[C@H]2CN(C3CCN(C)CC3)C(=O)[C@H](CCCCNCc3ccccc3)N2C1=O` [ID-57, (3R,6S,9aS)-6-(4-(benzylamino)butyl)-3-isobutyl-8-(1-methylpiperidin-4-yl)-1-((E)-3-(pyridin-2-yl)acryloyl)tetrahydropyrazino[2,1-c][1,2,4]oxadiazine-4,7(3H,6H)-dione], the IC50 came to 1000 nM. In addition, the inhibition at 10 µM (PANC-1, MTS, 6 days) is 101%.

Regarding `CC(C)(C)C[C@H]1C(=O)N(CC2CCCCC2)C[C@@H]2N(C(=O)/C=C/c3cnc4ccccc4n3)O[C@H](CC3CCCCC3)C(=O)N21` [ID-25, (3R,6S,9aS)-3,8-bis(cyclohexylmethyl)-6-neopentyl-1-((E)-3-(quinoxalin-2-yl)acryloyl)tetrahydropyrazino[2,1-c] [1,2,4]oxadiazine-4,7(3H,6H)-dione], the inhibition at 0.625 µM (PANC-1, MTS, 6 days, 0.625 μM, read-out: Growth inhibition (%) 0.625 μM) was determined as 4.7%. In addition, under “PANC-1, MTS, 6 days”, the inhibition at 1 µM is 6% and the inhibition at 30 µM was found to be 98.5%. In turn, `CC(C)C[C@H]1CN(CCCN(C)C2CCN(C)CC2)C[C@@H]2N(C(=O)/C=C/c3ccccn3)O[C@H](CC(C)C)C(=O)N12` [ID-35, (3R,6S,9aS)-3,6-diisobutyl-8-(3-(methyl(1-methylpiperidin-4-yl)amino)propyl)-1-((E)-3-(pyridin-2-yl)acryloyl)hexahydropyrazino[2,1-c][1,2,4]oxadiazin-4(3H)-one] showed a 50% inhibitory concentration (IC50) of 5000 nM. In addition, the inhibition at 10 µM (PANC-1, MTS, 6 days) was 99%.

Take `CC(C)C[C@H]1ON(C(=O)/C=C/c2cccc3nccnc23)[C@H]2CN(CCC(N)=O)C(=O)[C@H](CC(C)C)N2C1=O` [ID-30, 3-((3R,6S,9aS)-3,6-diisobutyl-4,7-dioxo-1-((E)-3-(quinoxalin-5-yl)acryloyl)hexahydropyrazino[2,1-c][1,2,4]oxadiazin-8 (1H)-yl)propanamide]: the inhibition at 10 µM (PANC-1, MTS, 6 days) was 58.4%. `CC(C)C[C@H]1ON(C(=O)/C=C/c2nc3ccccc3s2)[C@H]2CN(C3CCN(C)CC3)C(=O)[C@H](CC(C)C)N2C1=O` [ID-2, (3R, 6S, 9aS)-1-((E)-3-(benzo[d]thiazol-2-yl)acryloyl)-3,6-diisobutyl-8-(1-methylpiperidin-4-yl) tetrahydropyrazino[2,1-c] [1,2,4]oxadiazine-4,7(3H,6H)-dione] displayed a concentration for half-maximal inhibition (IC50) of 270 nM.

`CC(C)C[C@H]1ON(C(=O)/C=C/c2ccccn2)[C@H]2CN(C3CCN(C)CC3)C(=O)[C@H](Cc3ccc(O)cc3)N2C1=O` [ID-61, (3R,6S,9aS)-6-(4-hydroxybenzyl)-3-isobutyl-8-(1-methylpiperidin-4-yl)-1-((E)-3-(pyridin-2-yl)acryloyl)tetrahydropyrazino[2,1-c][1,2,4]oxadiazine-4,7(3H,6H)-dione] came in with a concentration for half-maximal inhibition (IC50) of 7300 nM.
